The values that follow come from ChEMBL document CHEMBL1130163, “Synthesis and inhibition studies of sulfur-substituted squalene oxide analogues as mechanism-based inhibitors of 2,3-oxidosqualene-lanosterol cyclase” (J Med Chem, 1997).

Molecules are shown by their SMILES.

This assay has as its target T1, Lanosterol synthase (Rattus norvegicus, UniProt P48450).
T1 sequence (P48450 whole entry): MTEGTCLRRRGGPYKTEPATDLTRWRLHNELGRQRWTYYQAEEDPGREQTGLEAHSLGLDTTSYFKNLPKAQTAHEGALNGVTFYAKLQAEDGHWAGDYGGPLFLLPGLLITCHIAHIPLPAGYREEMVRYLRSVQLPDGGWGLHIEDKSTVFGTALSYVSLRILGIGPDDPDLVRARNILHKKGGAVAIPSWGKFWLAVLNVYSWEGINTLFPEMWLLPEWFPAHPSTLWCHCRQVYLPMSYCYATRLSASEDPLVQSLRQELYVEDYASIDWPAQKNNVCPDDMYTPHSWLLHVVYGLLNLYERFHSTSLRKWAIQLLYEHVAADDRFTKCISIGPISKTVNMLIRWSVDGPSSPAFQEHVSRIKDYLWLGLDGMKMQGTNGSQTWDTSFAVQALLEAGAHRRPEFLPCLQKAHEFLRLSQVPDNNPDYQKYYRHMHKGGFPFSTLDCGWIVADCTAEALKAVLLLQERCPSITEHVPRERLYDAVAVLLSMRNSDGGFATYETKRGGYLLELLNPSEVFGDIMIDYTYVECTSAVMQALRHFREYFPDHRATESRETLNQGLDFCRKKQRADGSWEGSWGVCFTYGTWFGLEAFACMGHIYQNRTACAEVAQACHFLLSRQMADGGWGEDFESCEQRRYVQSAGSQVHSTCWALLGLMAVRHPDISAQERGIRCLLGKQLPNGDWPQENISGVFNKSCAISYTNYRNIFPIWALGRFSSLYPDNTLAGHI
Nature of the assay: Inhibition against rat liver Oxidosqualene-lanosterol cyclase.

`CC(C)=CCCC1(C)OC1CC/C(C)=C/CC/C=C(\C)CCCC(C)CCC1OC1C` (stereo unspecified) displayed an IC50 of 110 nM.
